Values of other authors as cited in patent US7705031B2 (priority 2003, dated 2010).

Tests used:
neuropathic pain = conditions: human, in vivo
NaV1.3 = NaV1.3 (Homo sapiens, UniProt Q9NY46); conditions: read-out: TTX IC50
Chain of NaV1.3 (Q9NY46 whole entry, looked up): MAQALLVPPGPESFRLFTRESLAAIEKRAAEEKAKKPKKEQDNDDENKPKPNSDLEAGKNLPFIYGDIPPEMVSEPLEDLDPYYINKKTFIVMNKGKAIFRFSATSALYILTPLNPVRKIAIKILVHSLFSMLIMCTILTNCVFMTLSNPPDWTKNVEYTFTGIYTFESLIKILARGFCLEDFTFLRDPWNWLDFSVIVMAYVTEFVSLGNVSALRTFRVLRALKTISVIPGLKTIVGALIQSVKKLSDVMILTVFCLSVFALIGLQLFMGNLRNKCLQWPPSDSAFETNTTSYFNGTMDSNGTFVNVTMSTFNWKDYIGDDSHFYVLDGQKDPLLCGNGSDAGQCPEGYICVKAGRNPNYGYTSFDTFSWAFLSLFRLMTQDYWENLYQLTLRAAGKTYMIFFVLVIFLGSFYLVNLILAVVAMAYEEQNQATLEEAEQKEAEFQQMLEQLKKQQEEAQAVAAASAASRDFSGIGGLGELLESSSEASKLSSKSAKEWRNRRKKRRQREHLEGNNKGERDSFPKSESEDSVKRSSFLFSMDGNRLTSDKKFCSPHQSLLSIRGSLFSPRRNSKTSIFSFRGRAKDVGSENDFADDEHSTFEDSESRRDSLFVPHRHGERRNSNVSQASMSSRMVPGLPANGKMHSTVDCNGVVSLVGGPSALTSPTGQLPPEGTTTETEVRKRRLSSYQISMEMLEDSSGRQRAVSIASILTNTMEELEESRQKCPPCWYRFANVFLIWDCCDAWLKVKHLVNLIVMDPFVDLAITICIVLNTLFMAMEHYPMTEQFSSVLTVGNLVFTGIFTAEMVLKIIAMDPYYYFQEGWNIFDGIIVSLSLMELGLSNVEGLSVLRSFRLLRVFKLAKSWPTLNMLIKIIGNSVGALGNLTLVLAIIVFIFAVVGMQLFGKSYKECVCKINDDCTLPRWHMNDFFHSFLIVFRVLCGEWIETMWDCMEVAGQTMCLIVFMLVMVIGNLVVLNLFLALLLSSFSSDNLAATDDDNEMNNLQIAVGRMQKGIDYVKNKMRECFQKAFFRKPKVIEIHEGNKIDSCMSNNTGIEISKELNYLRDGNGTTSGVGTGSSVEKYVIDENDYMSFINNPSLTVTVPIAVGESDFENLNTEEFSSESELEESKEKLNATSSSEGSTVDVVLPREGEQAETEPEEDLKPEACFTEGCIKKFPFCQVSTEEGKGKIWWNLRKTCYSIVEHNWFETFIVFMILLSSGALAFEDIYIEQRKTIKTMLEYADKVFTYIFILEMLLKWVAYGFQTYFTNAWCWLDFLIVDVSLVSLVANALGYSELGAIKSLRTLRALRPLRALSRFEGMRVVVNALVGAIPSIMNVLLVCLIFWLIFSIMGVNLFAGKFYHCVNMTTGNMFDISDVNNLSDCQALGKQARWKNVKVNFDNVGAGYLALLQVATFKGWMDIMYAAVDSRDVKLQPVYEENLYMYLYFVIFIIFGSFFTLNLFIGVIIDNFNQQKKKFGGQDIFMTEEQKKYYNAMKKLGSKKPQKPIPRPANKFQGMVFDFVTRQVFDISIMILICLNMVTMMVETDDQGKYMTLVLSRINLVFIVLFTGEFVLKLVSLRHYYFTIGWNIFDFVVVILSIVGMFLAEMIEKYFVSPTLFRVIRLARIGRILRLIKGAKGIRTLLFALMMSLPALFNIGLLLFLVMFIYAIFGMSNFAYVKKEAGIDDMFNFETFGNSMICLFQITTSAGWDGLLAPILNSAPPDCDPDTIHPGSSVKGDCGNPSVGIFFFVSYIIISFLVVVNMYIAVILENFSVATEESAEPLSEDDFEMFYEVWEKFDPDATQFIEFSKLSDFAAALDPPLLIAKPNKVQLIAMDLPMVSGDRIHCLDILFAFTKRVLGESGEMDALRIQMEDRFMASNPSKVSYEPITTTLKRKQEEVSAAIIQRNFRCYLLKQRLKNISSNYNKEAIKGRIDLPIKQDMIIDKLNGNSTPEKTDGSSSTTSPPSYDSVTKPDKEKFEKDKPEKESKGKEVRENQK

Row | Structure (SMILES) | share of patients in whom the drug works (neuropathic pain) [%] | IC50 (NaV1.3) [nM]
1 | NCC1(CC(=O)O)CCCCC1 [Gabapentin] | 60 | 
2 | NC1=N[C@H](O)[C@H]2[C@H]3O[C@]4(O)O[C@@H]([C@@H](O)[C@@]2(N1)[C@@H]4O)[C@]3(O)CO [TTX, tetrodotoxin] |  | 15
